Reference: ChEMBL document CHEMBL1129009, “New aza-thioxanthones: Synthesis and cytotoxicity” (Bioorg Med Chem Lett, 1996)

How the values were obtained:
Format in all cases: functional, cell-based
Settings in all cases: Homo sapiens
MOLT-4 = assay: Compound was evaluated for cytotoxicity against leukemic MOLT-4 cell lines
HOP-92 = assay: Compound was evaluated for cytotoxicity against non small lung cancer HOP-92 cell line
SW-620 = assay: Compound was evaluated for cytotoxicity against colon SW-620 cell line
MCF7 = assay: Compound was evaluated for cytotoxicity against breast cancer MCF-7 cell lines
SK-OV-3 = assay: Compound was evaluated for cytotoxicity against ovarian carcinoma […] cell line

| Structure (SMILES) | IC50 (MOLT-4) [nM] | IC50 (HOP-92) [µM] | IC50 (SW-620) [µM] | IC50 (MCF7) [µM] | IC50 (SK-OV-3) [µM] |
| --- | --- | --- | --- | --- | --- |
| O=C(CN1CCCCC1)Nc1ccc2sc3ccccc3c(=O)c2n1 | 2690 | 15.1 | 5.42 | 19.4 | 21.4 |
| O=C(CCN1CCOCC1)Nc1ccc2sc3ccccc3c(=O)c2n1 |  | 45.3 | 27.3 | 49.8 | 47.6 |
| CCN(CC)CCC(=O)Nc1ccc2sc3ccccc3c(=O)c2n1 | 7770 |  | 12 | 13.3 | 20.5 |
| O=C(CCN1CCCCC1)Nc1ccc2sc3ccccc3c(=O)c2n1 | 2560 | 0.41 | 8.31 | 15.9 | 23.2 |
| O=C(CCN1CCCC1)Nc1ccc2sc3ccccc3c(=O)c2n1 | 3420 | 18.1 | 15.5 | 17 | 5.23 |
| O=C(CN1CCCC1)Nc1ccc2sc3ccccc3c(=O)c2n1 | 1910 | 27.3 | 4.96 | 27.2 | 20.6 |
